Assay [1] has as its target T1, DYRK1A (Homo sapiens, UniProt Q13627).
T1 construct: purchased DiscoverX
Kind of assay: KINOMEscan DYRK1A binding assay (DiscoverX), Kd determination. Particulars: eleven serial three fold dilutions, highest concentration 60 μM, several values in a cell = repeat determinations. On the procedure: Compounds were tested for DYRK1A binding activity at DiscoverX. DiscoverX uses proprietary KINOMEscan® Assay (Fabian et al., “A Small Molecule-kinase Interaction Map for Clinical Kinase Inhibitors,” Nat. Biotechnol. 23(3):329-336 (2005), which is hereby incorporated by reference in its entirety). Compounds were screened for DYRK1A activity at a single concentration of 3 μM in duplicates. Similarly, the dissociation constant Kd of the hit compounds from the initial screening was determined at DiscoverX using their proprietary KINOMEscan® Assay. Kd values are determined using eleven serial three fold dilutions with the highest concentration of 60 μM.

Assay [2] deals with T2, DYRK1/DYRK1A (Homo sapiens, UniProt Q13627).
T2 construct: purchased Reaction Biology Corp
The assay is described as follows: DYRK1/DYRK1A IC50 assay (Reaction Biology Corp.). In kind it is biochemical. Particulars: DYRK1/DYRK1A assay from Reaction Biology Corp.

Values joined by “and” are separate entries in the source; they are usually repeats but may differ in a detail not shown here. Equal entries are not always repeated. Structures can show the parent of a compound that is named as a salt.

As usually defined, the Kd is the constant that tells how readily two partners part at equilibrium. Low values mean a tighter complex, high ones a looser complex. Molecule `O=c1[nH]c2ccc(-c3ccc(NCc4ccccc4)nc3)cc2[nH]1` [Compound 11a, 5-(6-(Benzylamino)pyridin-3-yl)-1H-benzo[d]imidazol-2(3H)-one] yielded a Kd in assay [1] of 300 nM. For `O=c1[nH]c2ccc(-c3ccc(NCc4ccc(F)cc4)nc3)cc2[nH]1` [Compound 11b, 5-(6-((4-Fluorobenzyl)amino)pyridin-3-yl)-1H-benzo[d]imidazol-2(3H)-one], the equilibrium dissociation constant (Kd) in assay [1] was 580 nM and 510 nM. For `O=c1[nH]c2ccc(-c3ccc(NCc4ccc(F)cc4)cn3)cc2[nH]1` [Compound 11c, 5-(5-((4-Fluorobenzyl)amino)pyridin-2-yl)-1H-benzo[d]imidazol-2(3H)-one], the Kd in assay [1] came out at 6000 nM.

As for `Cn1c(=O)[nH]c2ccc(-c3cncc(NCc4ccccc4)c3)cc21` [Compound 12b, 6-(5-(Benzylamino)pyridin-3-yl)-1-methyl-1H-benzo[d]imidazol-2(3H)-one], the Kd in assay [1] is 0.82 nM and 1.6 nM. Still for that read-out and setting: then `Cn1c(=O)[nH]c2cc(-c3cncc(NCc4ccccc4)c3)ccc21` [Compound 12c, 5-(5-(Benzylamino)pyridin-3-yl)-1-methyl-1H-benzo[d]imidazol-2(3H)-one], with 2000 nM. As to `O=c1[nH]c2ccc(-c3cncc(NCc4ccccc4)c3)cc2[nH]1` [Compound 13a, 5-(5-(Benzylamino)pyridin-3-yl)-1H-benzo[d]imidazol-2(3H)-one], the Kd in assay [1] is 2.3 nM and 2.9 nM and 1.1 nM.

For the molecule `O=c1[nH]c2ccc(-c3cncc(NCc4ccc(F)cc4)c3)cc2[nH]1` [Compound 13b, 5-(5-((4-Fluorobenzyl)amino)pyridin-3-yl)-1H-benzo[d]imidazol-2(3H)-one], the Kd in assay [1] is 2.9 nM and 1.8 nM. For `Cc1ncc(-c2ccc3[nH]c(=O)[nH]c3c2)cc1NCc1ccccc1` [Compound 13c, 5-(5-(Benzylamino)-6-methylpyridin-3-yl)-1H-benzo[d]imidazol-2(3H)-one], binding in assay [1] was characterised by a dissociation constant (Kd) of 140 nM.

In assay [1], `Cc1ncc(-c2ccc3[nH]c(=O)[nH]c3c2)cc1NCc1ccc(F)cc1` [Compound 13d, 5-(5-((4-Fluorobenzyl)amino)-6-methylpyridin-3-yl)-1H-benzo[d]imidazol-2(3H)-one] displayed a Kd of 240 nM.

`O=C1Cc2cc(-c3cncc(NCc4ccccc4)c3)ccc2N1` [Compound 13e, 5-(5-(Benzylamino)pyridin-3-yl)indolin-2-one]: in assay [1], the Kd is 1.3 nM and 1.9 nM. In assay [1], `O=c1[nH]c2ccc(-c3cncc(NCc4ccccc4F)c3)cc2[nH]1` [Compound 30a, 5-(5-((2-Fluorobenzyl)amino)pyridin-3-yl)-1H-benzo[d]imidazol-2(3H)-one] registered a Kd of 1.2 nM. This counts as single-digit nanomolar. The molecule `O=c1[nH]c2ccc(-c3cncc(NCc4cccc(F)c4)c3)cc2[nH]1` [Compound 30b, 5-(5-((3-Fluorobenzyl)amino)pyridin-3-yl)-1H-benzo[d]imidazol-2(3H)-one] returned a Kd in assay [1] of 1.2 nM. This lies in the single-digit nanomolar range. In the case of `O=c1[nH]c2ccc(-c3cncc(NCc4ccccc4Cl)c3)cc2[nH]1` [Compound 30c, 5-(5-((2-Chlorobenzyl)amino)pyridin-3-yl)-1H-benzo[d]imidazol-2(3H)-one], the dissociation constant (Kd) in assay [1] was 1.3 nM. Same read-out and setting: the value for `O=c1[nH]c2ccc(-c3cncc(NCc4ccc(Cl)cc4)c3)cc2[nH]1` [Compound 30e, 5-(5-((4-Chlorobenzyl)amino)pyridin-3-yl)-1H-benzo[d]imidazol-2(3H)-one] was 23 nM. What is called IC50 is the concentration at which inhibition is half-maximal. In assay [2], `O=c1[nH]c2ccc(-c3cncc(NCc4ccccc4)c3)cc2n1-c1ccccc1` [Compound 61e, 6-(5-(Benzylamino)pyridin-3-yl)-1-phenyl-1H-benzo[d]imidazol-2(3H)-one] gave an IC50 of 3.8 nM.

For the molecule `O=c1[nH]c2ccc(-c3cncc(NCc4ccccc4)c3)cc2n1-c1ccccn1` [Compound 61f, 6-(5-(Benzylamino)pyridin-3-yl)-1-(pyridin-2-yl)-1H-benzo[d]imidazol-2(3H)-one], the IC50 in assay [2] was 0.52 nM. Take `O=c1[nH]c2ccc(-c3cncc(NCc4ccccc4)c3)cc2n1-c1cccnc1` [Compound 61g, 6-(5-(Benzylamino)pyridin-3-yl)-1-(pyridin-3-yl)-1H-benzo[d]imidazol-2(3H)-one]: the IC50 in assay [2] worked out at 6.47 nM.

In assay [2], `COCCOc1cccc(-n2c(=O)[nH]c3ccc(-c4cncc(NCc5ccccc5)c4)cc32)c1` [Compound 61j, 6-(5-(Benzylamino)pyridin-3-yl)-1-(3-(2-methoxyethoxy)phenyl)-1H-benzo[d]imidazol-2(3H)-one] registered an IC50 of 3.47 nM. In assay [2], `COCCOc1ccc(-n2c(=O)[nH]c3ccc(-c4cncc(NCc5ccccc5)c4)cc32)cc1` [Compound 61k, 6-(5-(Benzylamino)pyridin-3-yl)-1-(4-(2-methoxyethoxy)phenyl)-1H-benzo[d]imidazol-2(3H)-one] displayed an IC50 of 38 nM. `CC(C)(C)OC(=O)NCCOCCOc1cccc(-n2c(=O)[nH]c3ccc(-c4cncc(NCc5ccccc5)c4)cc32)c1` [Compound 61m, tert-Butyl (2-(2-(3-(6-(5-(benzylamino)pyridin-3-yl)-2-oxo-2,3-dihydro-1H-benzo[d]imidazol-1-yl)phenoxy)ethoxy)ethyl)carbamate] returned an IC50 in assay [2] of 42.8 nM. With `NCCOc1cccc(-n2c(=O)[nH]c3ccc(-c4cncc(NCc5ccccc5)c4)cc32)c1` [Compound 61n, 1-(3-(2-Aminoethoxy)phenyl)-6-(5-(benzylamino)pyridin-3-yl)-1H-benzo[d]imidazol-2(3H)-one hydrochloride], half-maximal inhibition in assay [2] (IC50) was put at 7.12 nM. `NCCOCCOc1cccc(-n2c(=O)[nH]c3ccc(-c4cncc(NCc5ccccc5)c4)cc32)c1` [Compound 61o, 1-(3-(2-(2-Aminoethoxy)ethoxy)phenyl)-6-(5-(benzylamino)pyridin-3-yl)-1H-benzo[d]imidazol-2(3H)-one hydrochloride]: the IC50 in assay [2] stood at 3.9 nM. In turn, `Cn1c(=O)[nH]c2ccc(-c3cc(NCc4ccccc4)c[n+]([O-])c3)cc21` [Compound 69a, 3-(Benzylamino)-5-(3-methyl-2-oxo-2,3-dihydro-1H-benzo[d]imidazol-5-yl)pyridine 1-oxide] yielded an IC50 in assay [2] of 99.9 nM. In the case of `O=c1[nH]c2ccc(-c3cc(NCc4ccccc4)c[n+]([O-])c3)cc2[nH]1` [Compound 69b, 3-(Benzylamino)-5-(2-oxo-2,3-dihydro-1H-benzo[d]imidazol-5-yl)pyridine 1-oxide], in assay [2], the midpoint of inhibition, the IC50, lay at 45.2 nM. In turn, `C[C@H](Nc1cncc(-c2ccc3[nH]c(=O)n(C)c3c2)c1)c1ccccc1` [Compound 69c] displayed an IC50 in assay [2] of 0.286 nM. On the same count and under the same terms, then `Cc1ncc(NCc2ccccc2)cc1-c1ccc2[nH]c(=O)[nH]c2c1` [Compound 74a, 5-(5-(Benzylamino)-2-methylpyridin-3-yl)-1H-benzo[d]imidazol-2(3H)-one], with 2100 nM; and `O=c1[nH]c2ccc(-c3ccncc3NCc3ccccc3)cc2[nH]1` [Compound 74b, 5-(3-(Benzylamino)pyridin-4-yl)-1H-benzo[d]imidazol-2(3H)-one], with 8580 nM; and `O=c1[nH]c2ccc(-c3cnccc3NCc3ccccc3)cc2[nH]1` [Compound 74c, 5-(4-(Benzylamino)pyridin-3-yl)-1H-benzo[d]imidazol-2(3H)-one], with 1690 nM. Molecule `CC(C)(C)OC(=O)NCCOc1cccc(-n2c(=O)[nH]c3ccc(-c4cncc(NCc5ccccc5)c4)cc32)c1` [Compound 611, tert-Butyl (2-(3-(6-(5-(benzylamino)pyridin-3-yl)-2-oxo-2,3-dihydro-1H-benzo[d]imidazol-1-yl)phenoxy)ethyl)carbamate] had an IC50 in assay [2] of 103 nM.

The values above are taken from patent US20220162182A1, “KINASE INHIBITOR COMPOUNDS AND COMPOSITIONS AND METHODS OF USE” (ICAHN SCHOOL OF MEDICINE AT MOUNT SINAI, priority 2018, published 2022).
